In patent US20250320213A1, “Nitrogen-Containing Heterocyclic Compounds” (Pfizer Inc., priority 2024, published 2025):
Where two headings read alike, the source gives them in different places.

Key:
STAT6 = target: T1, STAT6 (Homo sapiens, UniProt P42226); assay: STAT6 Reporter Luciferase Assay (IL-13 stimulated HaCaT keratinocyte NanoLuc reporter cells); type: cell-based; conditions: read-out: Reporter EC50
T1 construct: stably transfected HaCaT keratinocyte cell line, which expresses NanoLuc luciferase reporter gene under the transcriptional control of the STAT6 responsive promoter; endogenous in cells; host or cells: HaCaT keratinocyte reporter cell line (stably transfected with a NanoLuc reporter)
T1 sequence (P42226 1-847): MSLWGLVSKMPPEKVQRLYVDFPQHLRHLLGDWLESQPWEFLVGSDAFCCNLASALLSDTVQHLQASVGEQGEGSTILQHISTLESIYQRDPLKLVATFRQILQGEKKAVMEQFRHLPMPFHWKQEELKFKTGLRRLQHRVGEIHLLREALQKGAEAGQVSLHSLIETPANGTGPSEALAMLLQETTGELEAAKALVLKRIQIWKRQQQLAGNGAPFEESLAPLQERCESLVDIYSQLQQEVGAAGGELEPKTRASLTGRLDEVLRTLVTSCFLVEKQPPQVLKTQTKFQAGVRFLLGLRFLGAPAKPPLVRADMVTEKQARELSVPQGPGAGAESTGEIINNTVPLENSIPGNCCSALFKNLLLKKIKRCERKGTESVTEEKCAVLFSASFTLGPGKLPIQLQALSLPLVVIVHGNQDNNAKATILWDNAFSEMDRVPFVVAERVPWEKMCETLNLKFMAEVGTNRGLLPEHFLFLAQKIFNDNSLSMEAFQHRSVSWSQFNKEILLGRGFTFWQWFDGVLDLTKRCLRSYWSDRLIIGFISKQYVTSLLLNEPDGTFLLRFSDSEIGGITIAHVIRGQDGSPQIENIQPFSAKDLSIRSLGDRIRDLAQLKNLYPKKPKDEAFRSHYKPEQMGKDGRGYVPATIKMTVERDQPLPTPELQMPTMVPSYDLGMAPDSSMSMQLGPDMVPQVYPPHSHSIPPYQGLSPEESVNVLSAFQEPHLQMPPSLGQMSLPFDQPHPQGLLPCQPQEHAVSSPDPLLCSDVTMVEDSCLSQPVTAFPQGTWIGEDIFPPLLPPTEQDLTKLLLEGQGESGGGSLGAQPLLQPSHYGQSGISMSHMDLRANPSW
In short: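 Stably transfected HaCaT cells carrying NanoLuc under the STAT6-responsive IL-13Ra2 promoter were pre-treated with compound (11-point, 4-fold series, duplicate) for 2 h at 37 °C, then stimulated with 0.12 nM IL-13 for 4 h. Nano-Glo luminescence was read after 15 min.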

[1] = tested on: CCL17 secretion in peripheral human whole blood; assay: Human Whole Blood (HWB) CCL17 TR-FRET Assay (IL-13 stimulated CCL17 secretion); type: cell-based
In short: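 Heparinized human whole blood was preincubated with compound (11-point, 3-fold series) for 2 h at 37°C, then stimulated with IL-13 (10 ng/mL final) for 48 h. Serum CCL17 was measured by TR-FRET sandwich immunoassay (665/615 nm ratio) after 16 h at room temperature, giving IC50.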

[2] = IL-13 stimulated HaCaT STAT6 NanoLuc reporter cells
[3] = Homo sapiens, 48 h, human whole blood, IL-13 stimulated
[4] = STAT6 NanoLuc luciferase reporter, IL-13 stimulated HaCaT keratinocyte cells
[5] = Homo sapiens, 48 h, inhibition of CCL17 secretion in human whole blood, 10 ng/mL IL13, 48 hours
[6] = human whole blood, IL-13 stimulated, 48 hours
[7] = Homo sapiens, 48 h, human whole blood, 10 ng/mL IL13, 48 hours

Row | Structure (SMILES) | EC50 (STAT6; [2]) [nM] | EC50 (STAT6; [4]) [nM] | IC50 [1, 5] [nM] | other results
1 | CCn1nc(C(=O)NCc2ccc(NC(=O)NC)cc2)c2c1[C@@H](C)CN(c1ncc(N3CCCC3=O)cn1)C2 [Example 482, (S)-1-ethyl-7-methyl-N-(4-(3-methylureido)benzyl)-5-(5-(2-oxopyrrolidin-1-yl)pyrimidin-2-yl)-4,5,6,7-tetrahydro-1H-pyrazolo[4,3-c]pyridine-3-carboxamide] | 7 | – | – | IC50 [1, 3]: 25 nM
2 | CN(C)C(=O)Nc1ccc(CNC(=O)c2nn(C3CCCOC3)c3c2CN(c2ccc(C(=O)N(C)C)cn2)CC3)cc1 (stereo not drawn) [Example 254, 5-(5-(dimethylcarbamoyl)pyridin-2-yl)-N-(4-(3,3-dimethylureido)benzyl)-1-(tetrahydro-2H-pyran-3-yl)-4,5,6,7-tetrahydro-1H-pyrazolo[4,3-c]pyridine-3-carboxamide] | 22 | – | – | IC50 [1, 3]: 180 nM
3 | CN(C)C(=O)Nc1ccc(CNC(=O)c2n[nH]c3c2CN(c2ccc(C(=O)N(C)C)cn2)CC3)cc1 [Example 18, 5-(5-(Dimethylcarbamoyl)pyridin-2-yl)-N-(4-(3,3-dimethylureido)benzyl)-4,5,6,7-tetrahydro-1H-pyrazolo[4,3-c]pyridine-3-carboxamide] | – | 1420 | 1380 | –
4 | CC(C)n1nc(C(=O)NCc2ccc(NC(=O)N(C)C)cc2)c2c1C(C(F)(F)F)CN(c1ncc(C(=O)N(C)C)cn1)C2 (single isomer, unassigned) [Example 462, rel-(R or S)-5-(5-(dimethylcarbamoyl)pyrimidin-2-yl)-N-(4-(3,3-dimethylureido)benzyl)-1-isopropyl-7-(trifluoromethyl)-4,5,6,7-tetrahydro-1H-pyrazolo[4,3-c]pyridine-3-carboxamide] | 38.7 | – | – | IC50 [1, 6]: 376 nM
5 | CCc1nc(C(=O)NCc2ccc(NC(=O)N(C)C)cc2)c2n1C(C)CN(c1ccc(C(=O)N(C)C)cn1)C2 (racemic) [Example 205, rac-(R)-7-(5-(dimethylcarbamoyl)pyridin-2-yl)-N-(4-(3,3-dimethylureido)benzyl)-3-ethyl-5-methyl-5,6,7,8-tetrahydroimidazo[1,5-a]pyrazine-1-carboxamide] | 5 | – | – | IC50 [1, 3]: 19 nM
6 | CC(C)n1nc(C(=O)NCc2ccc(NC(=O)NC3CCC3)cc2)c2c1CCN(c1ccc(C(=O)N(C)C)cn1)C2 [Example 157, N-(4-(3-cyclobutylureido)benzyl)-5-(5-(dimethylcarbamoyl)pyridin-2-yl)-1-isopropyl-4,5,6,7-tetrahydro-1H-pyrazolo[4,3-c]pyridine-3-carboxamide] | – | 8 | 535 | –
7 | CC(C)n1nc(C(=O)NCc2ccc(NC(=O)N3CCC4(CC3)COC4)cc2)c2c1CCN(c1ccc(C(=O)N(C)C)cn1)C2 [Example 156, N-(4-((5-(5-(dimethylcarbamoyl)pyridin-2-yl)-1-isopropyl-4,5,6,7-tetrahydro-1H-pyrazolo[4,3-c]pyridine-3-carboxamido)methyl)phenyl)-2-oxa-7-azaspiro[3.5]nonane-7-carboxamide] | – | 6 | 58 | –
8 | CC(C)n1nc(C(=O)NCc2ccc(NC(=O)N3CC(F)(F)C3)cc2)c2c1[C@@H](C)CN(c1ccc(C(=O)N(C)C)cn1)C2 [Example 599, (S)-N-(4-(3,3-difluoroazetidine-1-carboxamido)benzyl)-5-(5-(dimethylcarbamoyl)pyridin-2-yl)-1-isopropyl-7-methyl-4,5,6,7-tetrahydro-1H-pyrazolo[4,3-c]pyridine-3-carboxamide] | 1 | – | – | IC50 [1, 7]: 12 nM
9 | CC(C)n1nc(C(=O)NCc2ccc(NC(=O)N(C)C)cc2)c2c1[C@H](C)CN(c1ncc(C(=O)N(C)C)cn1)C2 (single isomer, unassigned) [Example 552] | 34 | – | – | IC50 [1, 7]: 87 nM
10 | COCCC1(N)CCN(C(=O)Nc2ccc(CNC(=O)c3nn(C(C)C)c4c3CN(c3ccc(C(=O)N(C)C)cc3)C[C@@H]4C)cc2)CC1 [Example 708, (S)-N-(4-(4-amino-4-(2-methoxyethyl)piperidine-1-carboxamido)benzyl)-5-(4-(dimethylcarbamoyl)phenyl)-1-isopropyl-7-methyl-4,5,6,7-tetrahydro-1H-pyrazolo[4,3-c]pyridine-3-carboxamide] | 1 | – | – | IC50 ([1]; Homo sapiens, 48 h, human whole blood, IL-13 10 ng/mL): 8 nM
11 | CC(CO)n1nc(C(=O)NCc2ccc(NC(=O)N(C)C)cc2)c2c1CCN(c1ccc(C(=O)N(C)C)cn1)C2 (single isomer, unassigned) [Example 360, rel-(R or S)-5-(5-(dimethylcarbamoyl)pyridin-2-yl)-N-(4-(3,3-dimethylureido)benzyl)-1-(1-hydroxypropan-2-yl)-4,5,6,7-tetrahydro-1H-pyrazolo[4,3-c]pyridine-3-carboxamide] | 74 | – | – | IC50 [1, 6]: 91 nM
12 | CC(C)c1nc(C(=O)NCc2ccc(NC(=O)N(C)C)cc2)c2n1C(C)CN(c1ccc(C(=O)N(C)C)cc1)C2 (single isomer, unassigned) [Example 538, rel-(R or S)-7-(4-(Dimethylcarbamoyl)phenyl)-N-(4-(3,3-dimethylureido)benzyl)-3-isopropyl-5-methyl-5,6,7,8-tetrahydroimidazo[1,5-a]pyrazine-1-carboxamide] | 0.2 | – | – | IC50 ([1]; human whole blood, 10 ng/mL IL13, 48 hours): 5 nM
13 | CC(C)n1nc(C(=O)NCc2ccc(NC(=O)N(C)C)cc2)c2c1CCN(c1ccc(N3CCCS3(=O)=O)cn1)C2 [Example 146, N-(4-(3,3-dimethylureido)benzyl)-5-(5-(1,1-dioxidoisothiazolidin-2-yl)pyridin-2-yl)-1-isopropyl-4,5,6,7-tetrahydro-1H-pyrazolo[4,3-c]pyridine-3-carboxamide] | – | 127 | 2120 | –
14 | CC(C)n1nc(C(=O)NCc2ccc(NC(=O)N3CCC(C)(C#N)CC3)cc2)c2c1CCN(c1ccc(C(=O)N(C)C)cn1)C2 [Example 172, N-(4-(4-cyano-4-methylpiperidine-1-carboxamido)benzyl)-5-(5-(dimethylcarbamoyl)pyridin-2-yl)-1-isopropyl-4,5,6,7-tetrahydro-1H-pyrazolo[4,3-c]pyridine-3-carboxamide] | – | 11 | 150 | –
15 | CN(C)C(=O)Nc1ccc(CNC(=O)c2nn(C)c3c2CN(c2ccc(C(=O)N(C)C)cn2)CC3(C)C)cc1 [Example 105, 5-(5-(dimethylcarbamoyl)pyridin-2-yl)-N-(4-(3,3-dimethylureido)benzyl)-1,7,7-trimethyl-4,5,6,7-tetrahydro-1H-pyrazolo[4,3-c]pyridine-3-carboxamide] | – | 3 | 21 | –
16 | Cc1nc(C(=O)NCc2ccc(NC(=O)N(C)C)cc2)c2n1CCN(c1ccc(C(=O)N(C)C)cn1)C2 [Example 5, 7-(5-(Dimethylcarbamoyl)pyridin-2-yl)-N-(4-(3,3-dimethylureido)benzyl)-3-methyl-5,6,7,8-tetrahydroimidazo[1,5-a]pyrazine-1-carboxamide] | – | 124 | – | IC50 ([1]; inhibition of CCL17 secretion in human whole blood, 10 ng/mL IL13, 48 hours): 927 nM
17 | CCC(C)n1nc(C(=O)NCc2ccc(NC(=O)N(C)C)cc2)c2c1[C@@H](C)CN(c1ccc(C(=O)N(C)C)cn1)C2 (single isomer, unassigned) [Example 319, (S)-1-((R*)-sec-butyl)-5-(5-(dimethylcarbamoyl)pyridin-2-yl)-N-(4-(3,3-dimethylureido)benzyl)-7-methyl-4,5,6,7-tetrahydro-1H-pyrazolo[4,3-c]pyridine-3-carboxamide] | 1 | – | – | IC50 [1, 6]: 13 nM
18 | CC(C)n1nc(C(=O)NCc2ccc(NC(=O)N3CCC(C)(C#N)CC3)cc2)c2c1[C@@H](C)CN(c1ccc(C(=O)N(C)C)cn1)C2 [Example 593, (S)-N-(4-(4-cyano-4-methylpiperidine-1-carboxamido)benzyl)-5-(5-(dimethylcarbamoyl)pyridin-2-yl)-1-isopropyl-7-methyl-4,5,6,7-tetrahydro-1H-pyrazolo[4,3-c]pyridine-3-carboxamide] | 1 | – | – | IC50 [1, 7]: 12 nM
